Experimental data taken from ChEMBL document CHEMBL2311489 (Eur J Med Chem, 2013).
Active and inactive are the calls of the source. The calls are words filed in the database; no cut-off is given here.

Columns and labels:
[1] = molecular target: T1, 5-hydroxytryptamine receptor 7 (Homo sapiens, UniProt P34969)
[2] = molecular target: T2, 5-hydroxytryptamine receptor 1A (Homo sapiens, UniProt P08908); assay: biochemical
T2 sequence (P08908 whole entry): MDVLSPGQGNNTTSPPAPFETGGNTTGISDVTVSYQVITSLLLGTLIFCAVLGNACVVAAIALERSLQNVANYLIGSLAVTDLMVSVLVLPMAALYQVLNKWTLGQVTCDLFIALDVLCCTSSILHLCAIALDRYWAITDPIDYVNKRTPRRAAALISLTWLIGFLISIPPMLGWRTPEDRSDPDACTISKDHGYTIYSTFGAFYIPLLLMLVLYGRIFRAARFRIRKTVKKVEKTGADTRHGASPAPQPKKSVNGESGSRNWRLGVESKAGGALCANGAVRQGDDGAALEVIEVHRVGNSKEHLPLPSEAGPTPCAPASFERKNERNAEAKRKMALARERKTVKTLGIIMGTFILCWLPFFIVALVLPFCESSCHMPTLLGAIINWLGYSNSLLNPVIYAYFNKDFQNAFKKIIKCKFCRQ

[3] = molecular target: T1, 5-hydroxytryptamine receptor 7; assay: biochemical
[4] = molecular target: 5-hydroxytryptamine receptor 2A (Homo sapiens, UniProt P28223); assay: biochemical
Description: Displacement of [3H]-ketanserin from human 5HT2A receptor expressed in HEK293 after 1.5 hrs

[5] = molecular target: T3, 5-hydroxytryptamine receptor 6 (Homo sapiens, UniProt P50406); assay: biochemical
Description: (§1) Displacement of [3H]-LSD from human 5HT6 receptor expressed in HEK293 after 1 hr

Mus musculus [6] = organism: Mus musculus; assay: animal or person; settings: Swiss albino, ip, read-out: ID50
Description: Antipsychotic activity in ip dosed Swiss albino mouse assessed as inhibition of apomorphine-induced climbing behavior administered 10 mins before apomorphine-challenge measured after 2 mins

Mus musculus [7] = assay: Antidepressant activity in Swiss albino mouse assessed as reduction of immobility time at 20 mg/kg, ip measured during last 4 mins of a 6 mins test session by forced swim test; type: functional; parameters: scale not given: the % may be the effect or the level left; settings: route intraperitoneal
[8] = molecular target: T3, 5-hydroxytryptamine receptor 6
Description: as §1

Mus musculus [9] = assay: Antidepressant activity in Swiss albino mouse assessed as reduction of immobility time at 10 mg/kg, ip measured during last 4 mins of a 6 mins test session by forced swim test; type: functional; parameters: scale not given: the % may be the effect or the level left; settings: route intraperitoneal
[10] = molecular target: T2, 5-hydroxytryptamine receptor 1A
[11] = molecular target: D(3) dopamine receptor (Homo sapiens) (UniProt P35462); assay: Displacement of [3H]-methylspiperone from human dopamine D3 receptor expressed in HEK293 at 10^-7 M after 1 hr; type: cell-based
Mus musculus [12] = assay: Antipsychotic activity in Swiss albino mouse assessed as inhibition of apomorphine-induced climbing behavior at 5 mg/kg, ip administered 10 mins before apomorphine-challenge measured after 2 mins; type: functional; settings: route intraperitoneal
[13] = molecular target: Sodium-dependent serotonin transporter (Rattus norvegicus, UniProt P31652); assay: biochemical
Mus musculus [14] = organism: Mus musculus; assay: animal or person; settings: Swiss albino, ip, 20 min, read-out: ID50
Description: Antipsychotic activity in ip dosed Swiss albino mouse assessed as inhibition of (+/-)DOI-induced head twitch response after 20 mins

D(2) dopamine receptor = D(2) dopamine receptor (Homo sapiens, UniProt P14416); assay: biochemical; type: cell-based, HEK293
Description: Displacement of [3H]-raclopride from human dopamine D2L receptor expressed in HEK293 after 1 hr

[15] = molecular target: T2, 5-hydroxytryptamine receptor 1A; remark: listed apart in the source
Description: Agonist activity at human 5HT1A receptor expressed in CHO cells assessed as cAMP accumulation

Mus musculus [16] = assay: Toxicity in Swiss albino mouse assessed as locomotor activity at 20 mg/kg, ip measured after 2 to 6 mins; type: organism-based; parameters: dose 20 mg/kg, route intraperitoneal; settings: in vivo
[17] = molecular target: T4, Adrenergic receptor alpha-1 (Rattus norvegicus, UniProt P15823+P23944+P43140)
T4 sequence (P15823 whole entry): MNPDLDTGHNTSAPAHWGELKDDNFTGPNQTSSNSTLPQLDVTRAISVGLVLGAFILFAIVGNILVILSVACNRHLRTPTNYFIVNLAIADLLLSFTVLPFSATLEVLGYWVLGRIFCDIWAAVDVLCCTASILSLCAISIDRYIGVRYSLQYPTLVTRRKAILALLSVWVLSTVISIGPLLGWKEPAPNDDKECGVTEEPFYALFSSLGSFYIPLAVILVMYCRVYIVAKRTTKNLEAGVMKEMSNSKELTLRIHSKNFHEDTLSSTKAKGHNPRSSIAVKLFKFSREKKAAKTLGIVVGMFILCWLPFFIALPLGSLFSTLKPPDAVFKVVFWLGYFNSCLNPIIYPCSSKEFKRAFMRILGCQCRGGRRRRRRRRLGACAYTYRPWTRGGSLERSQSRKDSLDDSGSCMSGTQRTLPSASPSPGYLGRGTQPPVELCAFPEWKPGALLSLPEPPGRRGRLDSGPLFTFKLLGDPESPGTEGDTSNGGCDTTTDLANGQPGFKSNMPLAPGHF
T4 sequence (P23944 whole entry): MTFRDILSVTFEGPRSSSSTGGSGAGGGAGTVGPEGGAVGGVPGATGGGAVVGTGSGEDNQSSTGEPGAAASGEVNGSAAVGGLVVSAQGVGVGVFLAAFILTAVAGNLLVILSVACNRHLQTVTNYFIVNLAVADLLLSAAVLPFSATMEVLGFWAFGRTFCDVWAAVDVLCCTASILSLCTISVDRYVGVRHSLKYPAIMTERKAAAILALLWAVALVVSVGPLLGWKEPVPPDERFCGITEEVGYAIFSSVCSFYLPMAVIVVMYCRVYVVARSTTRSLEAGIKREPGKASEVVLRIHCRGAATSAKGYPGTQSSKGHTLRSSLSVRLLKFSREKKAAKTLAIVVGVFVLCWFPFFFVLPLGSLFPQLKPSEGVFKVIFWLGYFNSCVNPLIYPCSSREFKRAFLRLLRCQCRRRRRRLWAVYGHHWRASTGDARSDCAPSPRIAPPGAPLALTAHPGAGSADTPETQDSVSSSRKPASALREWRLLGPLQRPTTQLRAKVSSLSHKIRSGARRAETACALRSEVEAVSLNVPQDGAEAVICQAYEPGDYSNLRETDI
T4 sequence (P43140 whole entry): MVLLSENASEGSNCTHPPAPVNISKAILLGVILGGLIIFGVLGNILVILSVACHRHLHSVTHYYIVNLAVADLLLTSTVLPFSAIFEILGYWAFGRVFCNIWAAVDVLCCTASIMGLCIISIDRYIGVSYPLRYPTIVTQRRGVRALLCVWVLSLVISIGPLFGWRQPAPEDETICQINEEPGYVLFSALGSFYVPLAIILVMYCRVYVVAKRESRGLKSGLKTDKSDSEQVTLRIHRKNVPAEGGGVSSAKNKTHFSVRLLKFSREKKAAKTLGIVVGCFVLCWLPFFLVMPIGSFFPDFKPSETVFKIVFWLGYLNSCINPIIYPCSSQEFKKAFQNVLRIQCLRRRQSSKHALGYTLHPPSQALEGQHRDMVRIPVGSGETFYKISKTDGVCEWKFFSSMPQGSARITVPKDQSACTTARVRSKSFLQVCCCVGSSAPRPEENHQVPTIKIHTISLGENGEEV
Description: Displacement of [3H]-Prazosin from adrenergic alpha1 receptor in rat cortex after 30 mins by scintillation counting

[18] = molecular target: T1, 5-hydroxytryptamine receptor 7; remark: listed apart in the source
[19] = molecular target: D(3) dopamine receptor (Homo sapiens) (UniProt P35462); assay: Displacement of [3H]-methylspiperone from human dopamine D3 receptor expressed in HEK293 at 10^-6 M after 1 hr; type: cell-based
Mus musculus [20] = assay: Toxicity in CD1 mouse assessed as increase of MK-801-evoked hyperactivity at 10 mg/kg, ip after 30 mins; type: organism-based; parameters: dose 10 mg/kg, route intraperitoneal; settings: in vivo, 0.5 h
Mus musculus [21] = assay: Antipsychotic activity in CD1 mouse assessed as inhibition MK-801-evoked hyperactivity at 2.5 to 20 mg/kg, ip after 30 mins; type: functional, organism-based
Mus musculus [22] = assay: Antidepressant activity in Swiss albino mouse assessed as reduction of immobility time at 5 mg/kg, ip measured during last 4 mins of a 6 mins test session by forced swim test; type: functional; parameters: scale not given: the % may be the effect or the level left; settings: route intraperitoneal
Mus musculus [23] = assay: Antipsychotic activity in Swiss albino mouse assessed as inhibition of apomorphine-induced climbing behavior at 1.25 mg/kg, ip administered 10 mins before apomorphine-challenge measured after 2 mins; type: functional; settings: route intraperitoneal
Mus musculus [24] = assay: Toxicity in Swiss albino mouse assessed as locomotor activity at 5 to 20 mg/kg, ip measured after 2 to 6 mins; type: organism-based; parameters: route intraperitoneal; settings: in vivo
Mus musculus [25] = assay: Toxicity in CD1 mouse assessed as increase of MK-801-evoked hyperactivity at 20 mg/kg, ip after 30 mins; type: organism-based; parameters: dose 20 mg/kg, route intraperitoneal; settings: in vivo, 0.5 h
Mus musculus [26] = assay: Antipsychotic activity in Swiss albino mouse assessed as inhibition of apomorphine-induced climbing behavior at 2.5 mg/kg, ip administered 10 mins before apomorphine-challenge measured after 2 mins; type: functional, organism-based; parameters: dose 2.5 mg/kg
Mus musculus [27] = assay: Antipsychotic activity in CD1 mouse assessed as inhibition MK-801-evoked hyperactivity at 10 to 20 mg/kg, ip after 30 mins; type: functional, organism-based

Chain of D(2) dopamine receptor (P14416 whole entry): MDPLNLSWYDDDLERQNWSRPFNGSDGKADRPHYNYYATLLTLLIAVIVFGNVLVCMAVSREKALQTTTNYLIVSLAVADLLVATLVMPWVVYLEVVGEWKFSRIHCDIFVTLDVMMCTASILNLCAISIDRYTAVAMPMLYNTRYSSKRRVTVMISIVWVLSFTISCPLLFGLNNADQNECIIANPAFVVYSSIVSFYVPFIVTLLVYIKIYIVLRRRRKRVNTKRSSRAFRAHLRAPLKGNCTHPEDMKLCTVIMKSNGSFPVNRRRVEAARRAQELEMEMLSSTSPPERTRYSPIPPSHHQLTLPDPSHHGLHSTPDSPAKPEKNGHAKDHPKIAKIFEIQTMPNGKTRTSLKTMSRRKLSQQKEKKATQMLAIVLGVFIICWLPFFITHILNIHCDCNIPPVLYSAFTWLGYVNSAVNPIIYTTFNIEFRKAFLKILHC
Chain of 5-hydroxytryptamine receptor 2A (P28223 whole entry): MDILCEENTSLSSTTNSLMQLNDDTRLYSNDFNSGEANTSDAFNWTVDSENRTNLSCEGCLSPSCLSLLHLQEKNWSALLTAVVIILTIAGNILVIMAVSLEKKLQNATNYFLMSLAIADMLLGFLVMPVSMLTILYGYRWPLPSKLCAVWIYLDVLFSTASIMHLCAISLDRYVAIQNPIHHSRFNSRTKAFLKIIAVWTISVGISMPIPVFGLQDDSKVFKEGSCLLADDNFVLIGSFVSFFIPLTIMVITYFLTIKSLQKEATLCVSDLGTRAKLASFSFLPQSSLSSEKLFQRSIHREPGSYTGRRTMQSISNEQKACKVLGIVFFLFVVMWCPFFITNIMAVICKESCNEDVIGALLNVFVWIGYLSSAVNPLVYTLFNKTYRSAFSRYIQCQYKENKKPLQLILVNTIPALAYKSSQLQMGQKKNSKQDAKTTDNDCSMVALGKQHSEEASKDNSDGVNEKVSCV
Chain of D(3) dopamine receptor (Homo sapiens) (P35462 whole entry): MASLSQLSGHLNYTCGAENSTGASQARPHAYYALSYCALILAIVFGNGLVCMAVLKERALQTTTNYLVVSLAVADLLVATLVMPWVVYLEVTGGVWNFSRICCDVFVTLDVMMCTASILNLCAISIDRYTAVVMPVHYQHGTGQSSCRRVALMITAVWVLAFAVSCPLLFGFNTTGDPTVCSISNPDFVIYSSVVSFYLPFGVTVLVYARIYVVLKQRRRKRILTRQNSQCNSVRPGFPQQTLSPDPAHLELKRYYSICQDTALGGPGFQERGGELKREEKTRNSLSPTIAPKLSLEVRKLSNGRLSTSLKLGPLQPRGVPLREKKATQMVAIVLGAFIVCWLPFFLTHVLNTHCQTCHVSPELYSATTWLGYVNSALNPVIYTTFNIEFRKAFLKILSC
Chain of Sodium-dependent serotonin transporter (P31652 whole entry): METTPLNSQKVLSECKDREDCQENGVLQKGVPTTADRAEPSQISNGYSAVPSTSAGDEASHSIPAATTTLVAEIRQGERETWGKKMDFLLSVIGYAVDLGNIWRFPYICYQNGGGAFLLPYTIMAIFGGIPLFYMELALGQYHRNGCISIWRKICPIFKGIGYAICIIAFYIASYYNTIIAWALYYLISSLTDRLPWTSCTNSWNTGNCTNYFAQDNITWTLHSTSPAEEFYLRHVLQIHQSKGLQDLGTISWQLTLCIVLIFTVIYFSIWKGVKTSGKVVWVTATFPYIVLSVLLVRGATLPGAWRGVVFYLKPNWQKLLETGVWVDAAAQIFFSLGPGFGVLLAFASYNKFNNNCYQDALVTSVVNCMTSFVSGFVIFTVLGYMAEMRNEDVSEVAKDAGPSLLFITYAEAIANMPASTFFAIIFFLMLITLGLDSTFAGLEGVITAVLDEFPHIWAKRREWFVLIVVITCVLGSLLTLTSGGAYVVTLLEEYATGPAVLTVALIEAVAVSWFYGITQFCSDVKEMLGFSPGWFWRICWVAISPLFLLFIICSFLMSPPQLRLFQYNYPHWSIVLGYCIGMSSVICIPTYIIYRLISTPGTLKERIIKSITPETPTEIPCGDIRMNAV
T3 sequence (P50406 whole entry): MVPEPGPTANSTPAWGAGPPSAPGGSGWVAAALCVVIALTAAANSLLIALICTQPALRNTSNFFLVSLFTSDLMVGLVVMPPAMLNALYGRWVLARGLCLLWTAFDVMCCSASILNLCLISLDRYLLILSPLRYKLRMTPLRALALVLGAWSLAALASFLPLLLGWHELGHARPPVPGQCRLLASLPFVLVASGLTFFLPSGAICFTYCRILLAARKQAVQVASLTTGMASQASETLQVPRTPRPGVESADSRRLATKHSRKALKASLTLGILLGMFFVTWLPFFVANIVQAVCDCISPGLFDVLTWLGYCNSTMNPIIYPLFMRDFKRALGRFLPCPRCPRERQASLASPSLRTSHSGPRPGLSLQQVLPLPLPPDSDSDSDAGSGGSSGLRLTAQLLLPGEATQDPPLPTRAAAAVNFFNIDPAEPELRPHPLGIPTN
T1 sequence (P34969 whole entry): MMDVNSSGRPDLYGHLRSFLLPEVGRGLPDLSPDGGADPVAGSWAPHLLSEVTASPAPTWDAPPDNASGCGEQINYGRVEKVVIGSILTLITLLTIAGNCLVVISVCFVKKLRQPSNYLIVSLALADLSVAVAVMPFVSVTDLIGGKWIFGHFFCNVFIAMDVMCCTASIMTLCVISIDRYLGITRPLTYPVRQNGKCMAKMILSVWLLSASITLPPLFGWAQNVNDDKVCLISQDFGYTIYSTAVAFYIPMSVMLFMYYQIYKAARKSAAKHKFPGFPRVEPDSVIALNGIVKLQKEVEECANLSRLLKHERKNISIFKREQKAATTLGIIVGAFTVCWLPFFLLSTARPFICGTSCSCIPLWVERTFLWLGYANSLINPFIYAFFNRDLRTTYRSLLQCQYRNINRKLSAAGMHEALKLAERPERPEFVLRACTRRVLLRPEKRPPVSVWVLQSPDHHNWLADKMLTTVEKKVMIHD

| Compound | IC50 [1] [nM] | Ki [2] [nM] | Ki [3] [nM] | Ki [4] [nM] | Ki [5] [nM] | inhibition [11] [%] | Ki [13] [nM] | Ki (D(2) dopamine receptor) [nM] | EC50 [15] [nM] | Ki [17] [nM] | inhibition [19] [%] | ED50 (Mus musculus [6]) [mg/kg] | Activity (Mus musculus [7]) [%] | Activity (Mus musculus [9]) [%] | inhibition in vivo at 5 mg/kg (Mus musculus [12]) [%] | ED50 (Mus musculus [14]) [mg/kg] | Activity (Mus musculus [24]) | other results |
| --- | --- | --- | --- | --- | --- | --- | --- | --- | --- | --- | --- | --- | --- | --- | --- | --- | --- | --- |
| CSc1ccc2c(c1)C(CCN)=CC2 [METHIOTHEPINE] | 2.2 |  |  |  |  |  |  |  |  |  |  |  |  |  |  |  |  |  |
| O=S(=O)(NCCCCN1CCN(c2cccc(Cl)c2Cl)CC1)c1ccc2cccnc2c1 | 3800 |  |  | 22 |  | 99 | 788 | 11 | 865 | 136 | 101 | 19.9 | 41 | 48 | 43.6 | 4.58 |  | Ki [8]: 301 nM; Ki [10]: 17 nM; Activity (Mus musculus [16]): Toxic; Ki [18]: 31 nM; Activity (Mus musculus [20]): Toxic |
| O=S(=O)(NCCCCN1CCN(c2cccc(Cl)c2Cl)CC1)c1cnc2ccc(Cl)cc2c1 |  | 88 | 41 | 42 | 555 |  |  |  |  |  |  |  |  |  |  |  |  |  |
| O=S(=O)(NCCCN1CCN(c2cccc(Cl)c2Cl)CC1)c1ccc2cccnc2c1 | 2800 |  |  | 47 |  | 90 | 224 | 16 | 7400 | 186 | 99 |  |  | 79 | 50.5 | 10.2 | Non-toxic | Ki [8]: 257 nM; Activity (Mus musculus [25]): Toxic; Ki [10]: 14 nM; Activity (Mus musculus [22]): 57%; Activity (Mus musculus [26]): Active; Ki [18]: 12 nM |
| O=S(=O)(NCCCN1CCN(c2cccc(Cl)c2Cl)CC1)c1cnc2ccc(Cl)cc2c1 |  | 23 | 46 | 115 | 901 |  |  |  |  |  |  |  |  |  |  |  |  |  |

The next lines start with results.

| IC50 [1] [nM] | Ki [2] [nM] | Ki [3] [nM] | Ki [4] [nM] | Ki [5] [nM] | inhibition [11] [%] | Ki [13] [nM] | Ki (D(2) dopamine receptor) [nM] | EC50 [15] [nM] | Ki [17] [nM] | inhibition [19] [%] | Compound | ED50 (Mus musculus [6]) [mg/kg] | Activity (Mus musculus [7]) [%] | Activity (Mus musculus [9]) [%] | inhibition in vivo at 5 mg/kg (Mus musculus [12]) [%] | ED50 (Mus musculus [14]) [mg/kg] | Activity (Mus musculus [24]) | other results |
| --- | --- | --- | --- | --- | --- | --- | --- | --- | --- | --- | --- | --- | --- | --- | --- | --- | --- | --- |
|  | 79 | 124 | 23 | 484 |  |  |  |  |  |  | O=S(=O)(NCCCCN1CCN(c2cccc(Cl)c2Cl)CC1)c1ccc2ncccc2c1 |  |  |  |  |  |  |  |
|  | 112 | 27 | 29 | 598 |  |  |  |  |  |  | O=S(=O)(NCCCCN1CCN(c2cccc(Cl)c2Cl)CC1)c1cccc2cccnc12 |  |  |  |  |  |  |  |
| 5600 |  |  | 35 |  | 95 | 335 | 17 | 15500 | 255 | 98 | O=S(=O)(NCCCCN1CCN(c2cccc(Cl)c2Cl)CC1)c1cc2ccccc2cn1 | 19.9 | 83 | 53 |  | 9.03 | Non-toxic | Ki [8]: 454 nM; inhibition (Mus musculus [21]): inactive; Ki [10]: 34 nM; Activity (Mus musculus [22]): 43%; Ki [18]: 56 nM; inhibition in vivo at 1.25 mg/kg (Mus musculus [23]): 49.1% |
|  | 25 | 31 | 65 | 326 |  |  |  |  |  |  | O=S(=O)(NCCCN1CCN(c2cccc(Cl)c2Cl)CC1)c1ccc2ncccc2c1 |  |  |  |  |  |  |  |
| 820 | 59 | 21 | 90 | 220 | 93 | 783 | 8 | 15000 | 160 | 95 | O=S(=O)(NCCCCN1CCN(c2cccc(Cl)c2Cl)CC1)c1cncc2ccccc12 | 11.3 | 44 |  | 44.6 | 5.3 | Non-toxic | inhibition (Mus musculus [27]): Active |
| 7800 | 23 | 30 | 34 | 1330 | 94 | 1200 | 9 | 1650 | 170 | 99 | O=S(=O)(NCCCCN1CCN(c2cccc(Cl)c2Cl)CC1)c1cnc2ccccc2c1 | 20.7 | 30 | 31 | 49.3 | 20.2 | Non-toxic | inhibition (Mus musculus [21]): inactive |
